Assay results: the NIST ThermoML archive (doi:10.1021/je700339f)

Conditions: Liquid

ClCCCCCCCl [1,6-dichlorohexane]
mass density [kg/m3]
Conditions | 288.15 K | 298.15 K | 308.15 K | 318.15 K
100 kPa | 1073.7 | 1063.8 | 1054.6 | 1045.1
500 kPa | 1073.9 | 1064.2 | 1054.9 | 1045.3
1000 kPa | 1074.3 | 1064.4 | 1055.2 | 1045.7
1500 kPa | – | 1064.8 | 1055.5 | 1046.2
1600 kPa | 1074.6 | – | – | –
2000 kPa | 1075 | 1065.2 | 1055.9 | 1046.6
2500 kPa | 1075.3 | 1065.5 | 1056.3 | 1046.9
3100 kPa | 1075.7 | 1065.9 | 1056.7 | 1047.4
3600 kPa | 1076 | 1066.3 | 1057.1 | 1047.8
4100 kPa | 1076.3 | 1066.7 | 1057.4 | 1048.1
4500 kPa | – | 1066.9 | – | –
4600 kPa | 1076.6 | – | 1057.8 | 1048.4
5000 kPa | – | 1067.3 | – | –
5100 kPa | 1076.9 | – | 1058.2 | 1048.9
5600 kPa | 1077.3 | 1067.6 | 1058.5 | 1049.2
6100 kPa | 1077.6 | 1068 | 1058.9 | 1049.7
6500 kPa | 1077.9 | – | – | –
6600 kPa | – | 1068.4 | 1059.2 | 1050
7100 kPa | 1078.3 | 1068.7 | 1059.6 | 1050.4
7600 kPa | 1078.5 | 1069 | 1059.8 | 1050.7
8100 kPa | 1078.9 | 1069.4 | 1060.2 | 1051.2
8500 kPa | – | – | – | 1051.4
8600 kPa | 1079.2 | 1069.7 | 1060.6 | –
9100 kPa | 1079.5 | – | – | 1051.8
9200 kPa | – | 1070.1 | 1061 | –
9600 kPa | 1079.9 | 1070.4 | 1061.4 | 1052.2
10100 kPa | 1080.2 | 1070.7 | 1061.7 | 1052.6
10600 kPa | 1080.5 | 1071.1 | 1062.1 | –
10700 kPa | – | – | – | 1053.1
11000 kPa | – | 1071.3 | – | –
11100 kPa | 1080.8 | – | 1062.4 | 1053.6
11600 kPa | 1081.2 | – | 1062.7 | 1053.9
11700 kPa | – | 1071.7 | – | –
12100 kPa | 1081.5 | 1071.9 | 1063.1 | 1054.1
12600 kPa | 1081.8 | 1072.3 | 1063.5 | 1054.5
13100 kPa | 1082.1 | 1072.6 | 1063.8 | 1054.8
13600 kPa | 1082.4 | 1072.9 | 1064.1 | 1055.3
14100 kPa | – | – | 1064.5 | –
14200 kPa | 1082.8 | 1073.3 | – | 1055.6
14700 kPa | 1083 | 1073.6 | – | 1056
14800 kPa | – | – | 1064.9 | –
15100 kPa | – | – | 1065.1 | –
15200 kPa | 1083.4 | 1074 | – | 1056.3
15600 kPa | – | – | – | 1056.6
15700 kPa | 1083.7 | 1074.3 | 1065.5 | –
16200 kPa | – | – | 1065.8 | –
16300 kPa | 1084 | – | – | 1057.1
16400 kPa | – | 1074.8 | – | –
16700 kPa | – | – | 1066.2 | –
16800 kPa | 1084.3 | 1075.2 | – | 1057.3
17300 kPa | 1084.6 | 1075.5 | 1066.6 | 1057.7
17800 kPa | 1084.9 | 1075.8 | 1066.9 | 1058
18300 kPa | 1085.3 | 1076.1 | 1067.2 | 1058.3
18700 kPa | – | 1076.4 | 1067.4 | –
18800 kPa | 1085.5 | – | – | –
18900 kPa | – | – | – | 1058.8
19200 kPa | 1085.7 | 1076.7 | 1067.8 | 1059
19700 kPa | 1086 | 1076.9 | 1068 | 1059.3
20200 kPa | 1086.5 | 1077.3 | – | 1059.6
20300 kPa | – | – | 1068.5 | –

ClCCCCCl [1,4-dichlorobutane]
mass density [kg/m3]
Conditions | 288.15 K | 298.15 K | 308.15 K | 318.15 K
100 kPa | 1143.7 | 1133.7 | 1122.3 | 1112
500 kPa | 1144.1 | 1134 | 1122.7 | 1112.4
1000 kPa | 1144.5 | 1134.4 | 1123.1 | 1112.8
1500 kPa | 1144.8 | 1134.8 | 1123.5 | 1113.2
2000 kPa | 1145.2 | 1135.2 | 1123.9 | 1113.7
2500 kPa | 1145.5 | 1135.6 | 1124.3 | 1114.1
3000 kPa | 1145.9 | – | – | –
3100 kPa | – | 1136.1 | 1124.8 | 1114.7
3500 kPa | – | – | – | 1115
3600 kPa | 1146.4 | 1136.4 | 1125.2 | –
4100 kPa | 1146.7 | 1136.8 | 1125.6 | 1115.5
4600 kPa | 1147 | 1137.2 | 1126 | 1115.9
5100 kPa | 1147.4 | 1137.6 | 1126.4 | 1116.3
5600 kPa | 1147.7 | 1137.9 | 1126.9 | 1116.8
6100 kPa | 1148.1 | 1138.4 | 1127.2 | 1117.3
6600 kPa | 1148.5 | 1138.7 | 1127.5 | 1117.7
7100 kPa | 1148.9 | 1139.1 | 1128 | 1118.1
7600 kPa | 1149.2 | 1139.4 | 1128.4 | 1118.4
8100 kPa | 1149.5 | 1139.8 | 1128.8 | 1118.9
8600 kPa | 1149.9 | 1140.2 | 1129.2 | 1119.3
9200 kPa | 1150.3 | 1140.6 | 1129.6 | 1119.8
9600 kPa | 1150.7 | 1141 | 1130 | 1120.2
10100 kPa | 1151 | 1141.4 | 1130.4 | 1120.6
10600 kPa | 1151.3 | – | 1130.9 | 1121
10700 kPa | – | 1141.8 | – | –
11100 kPa | 1151.7 | 1142.1 | 1131.2 | 1121.4
11600 kPa | 1152 | 1142.4 | 1131.5 | 1121.8
12100 kPa | 1152.4 | 1142.8 | 1131.9 | 1122.1
12600 kPa | 1152.7 | 1143.2 | 1132.4 | 1122.6
13000 kPa | – | – | – | 1123
13100 kPa | 1153.1 | 1143.6 | 1132.6 | –
13500 kPa | 1153.3 | – | – | –
13600 kPa | – | 1143.9 | 1133.1 | 1123.3
14100 kPa | – | 1144.2 | 1133.5 | –
14200 kPa | 1153.8 | – | – | 1123.9
14700 kPa | 1154.1 | 1144.6 | 1133.9 | 1124.4
15100 kPa | – | – | 1134.2 | –
15200 kPa | 1154.4 | 1145 | – | 1124.7
15700 kPa | 1154.8 | 1145.4 | 1134.6 | 1125.1
16200 kPa | – | 1145.8 | 1135 | –
16300 kPa | 1155.2 | – | – | 1125.4
16700 kPa | – | 1146.1 | 1135.3 | –
16800 kPa | 1155.6 | – | – | 1126
17200 kPa | – | 1146.5 | 1135.7 | –
17300 kPa | 1155.9 | – | – | 1126.3
17800 kPa | 1156.2 | 1146.9 | 1136.1 | 1126.5
18300 kPa | 1156.5 | 1147.2 | 1136.5 | 1127
18800 kPa | 1156.8 | 1147.6 | 1136.8 | 1127.4
19100 kPa | 1157.1 | – | – | –
19200 kPa | – | 1147.9 | 1137.2 | 1127.7
19700 kPa | 1157.4 | 1148.2 | 1137.6 | 1128
20200 kPa | 1157.8 | 1148.7 | 1138 | 1128.4
